Experimental data from patent US12391685B2, “Inhibitors of RNA-guided nuclease target binding and uses thereof” (THE BROAD INSTITUTE, INC., priority 2018, dated 2025).
Converted amounts (≈) assume the structure as drawn.

Assays:
Plasma stability assay = type: in vitro ADME; details: 5 μM, 50% human plasma in PBS, 5 h
Procedure: Plasma stability assay. Human plasma stability of the compounds was performed following a reported protocol (Di et al., 2005). BRD0539 (5 μM) was incubated with 50% human plasma (K2 EDTA, BioreclamationIVT) in PBS for 5 h in triplicate. Eucatropine (Aldrich) and verapamil (Acros) were included as the positive and negative control, respectively. The samples were analyzed by UPLC-MS (AB Sciex 4500 with Waters Acquity FTN) with compounds detected by […] mass spectrometer. All integration and analysis were performed using DiscoveryQuant software.

SpCas9 [1] = biological target: T1, SpCas9 (Streptococcus pyogenes serotype M1, UniProt Q99ZW2); experiment: Reversibility of SpCas9 inhibition (pulse-chase, eGFP-disruption assay); type: cell-based, S. pyogenes; design: made in house; host or cells: E. coli Rosetta (DE3); details: 15 μM BRD0539 or SpCas9:gRNA:AcrIIA4 complex, media swap 2-24 h
Procedure: Reversal of BRD0539-mediated inhibition of SpCas9 was performed in the eGFP-disruption assay where 2×10^5 U2OS.eGFP.PEST cells were nucleofected with preformed SpCas9:gRNA complex as previously discussed. Approximately 22,000 transfected cells/well were plated in 4 replicates in a 96-well plate (Corning® 3904) along with 15 μM of BRD0539 or DMSO. For AcrIIA4 reversibility experiment, a preformed SpCas9:gRNA (10 pmol) was incubated with AcrIIA4 (5×) for 10 min and then nucleofected to U2OS.eGFP.PEST cells following the aforementioned protocol. The media were swapped with the fresh media containing no BRD0539/AcrIIA4 at the indicated time point (2-24 h) and the cells were allowed to grow until 24 h post-nucleofection. Cells were then fixed using 4% paraformaldehyde and imaged with the HCS NuclearMask™ Blue Stain (Life Technologies) as the nuclear counter-staining agent. Imaging was performed with an ImageXpress Micro automated microscope (Molecular Devices) at 10× magnification under three excitation channels (blue, green and red) acquiring nine sites per well. Images were analyzed using MetaXpress software and data were plotted using GraphPad Prism 6.

[2] = tested on: U2OS.eGFP.PEST cells and HEK293T cells; experiment: Cell viability (ATP content); details: 5-20 μM, 24 h
SpCas9 [3] = biological target: T1, SpCas9; experiment: NHEJ assay in HEK293T cells; type: cell-based, S. pyogenes; details: 2-10 μM, 24 h
Procedure: NHEJ assay. Approximately 8,000 cells/well were seeded in a 96-well plate 24 h before transient transfection with a total 100 ng of DN66 (mCherry—TAG—GFP reporter) and DN78 (SpCas9 and gRNA) plasmids (1:1) using Lipofectamine 2000 (Life Technologies) (Nguyen et al., 2016b). Transfected cells were incubated with the indicated amount of small molecule or DMSO for 24 h. Cells were then fixed using 4% paraformaldehyde and imaged with the HCS NuclearMask™ Blue Stain (Life Technologies) as the nuclear counter-staining agent. Imaging was performed with an ImageXpress Micro automated microscope (Molecular Devices) at 4× magnification under three excitation channels (blue, green and red) with 9 acquisition sites per well. Images were analyzed in the MetaXpress software to determine the % NHEJ and the data were plotted using GraphPad Prism 6. The Z′-value was calculated following the formula: Z′=1−(3(σ1+σ2))/(|μ1−μ2|) where σ1 and σ2 are the standard deviations of DN66 transfected wells and (DN66+DN78) transfected wells respectively. μ1 and μ2 are the mean % GFP cell population for DN66 transfected wells and (DN66+DN78) transfected wells respectively.

physchem = details: PBS, aqueous buffer

T1 sequence (Q99ZW2 whole entry): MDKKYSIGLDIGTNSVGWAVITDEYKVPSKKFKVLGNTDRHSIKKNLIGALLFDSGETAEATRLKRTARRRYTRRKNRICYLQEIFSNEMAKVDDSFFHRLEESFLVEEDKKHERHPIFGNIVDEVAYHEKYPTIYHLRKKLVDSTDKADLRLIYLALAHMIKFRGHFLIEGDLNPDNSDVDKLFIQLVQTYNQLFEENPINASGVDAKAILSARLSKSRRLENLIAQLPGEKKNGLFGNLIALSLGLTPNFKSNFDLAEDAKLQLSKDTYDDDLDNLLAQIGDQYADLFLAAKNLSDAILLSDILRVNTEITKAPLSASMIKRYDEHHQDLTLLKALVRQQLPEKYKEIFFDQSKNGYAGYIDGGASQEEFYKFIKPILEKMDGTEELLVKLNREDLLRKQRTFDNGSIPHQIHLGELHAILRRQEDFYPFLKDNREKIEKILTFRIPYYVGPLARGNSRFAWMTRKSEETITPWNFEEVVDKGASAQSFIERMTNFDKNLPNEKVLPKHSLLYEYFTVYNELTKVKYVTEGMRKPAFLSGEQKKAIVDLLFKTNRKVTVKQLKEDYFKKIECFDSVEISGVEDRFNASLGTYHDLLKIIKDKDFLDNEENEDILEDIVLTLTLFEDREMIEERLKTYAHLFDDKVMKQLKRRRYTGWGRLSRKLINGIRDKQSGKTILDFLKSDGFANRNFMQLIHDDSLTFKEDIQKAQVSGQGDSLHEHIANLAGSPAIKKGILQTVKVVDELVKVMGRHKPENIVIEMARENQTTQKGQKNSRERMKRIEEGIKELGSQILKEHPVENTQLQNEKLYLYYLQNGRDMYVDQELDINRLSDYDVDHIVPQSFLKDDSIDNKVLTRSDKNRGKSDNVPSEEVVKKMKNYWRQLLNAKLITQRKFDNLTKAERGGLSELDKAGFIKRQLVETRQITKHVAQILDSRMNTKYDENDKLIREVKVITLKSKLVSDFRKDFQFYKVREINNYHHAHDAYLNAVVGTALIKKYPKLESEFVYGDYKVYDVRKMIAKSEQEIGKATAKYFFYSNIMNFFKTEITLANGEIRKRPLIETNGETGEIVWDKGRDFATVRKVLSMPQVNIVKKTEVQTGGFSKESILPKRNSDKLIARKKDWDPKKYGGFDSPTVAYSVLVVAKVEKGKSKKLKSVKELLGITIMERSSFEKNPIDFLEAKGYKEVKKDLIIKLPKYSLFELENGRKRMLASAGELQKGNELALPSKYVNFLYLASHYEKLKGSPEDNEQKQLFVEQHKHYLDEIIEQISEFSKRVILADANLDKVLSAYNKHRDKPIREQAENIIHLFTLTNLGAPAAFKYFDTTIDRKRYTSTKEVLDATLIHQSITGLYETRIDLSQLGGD

Cc1ccc(S(=O)(=O)N2CC[C@@H]3[C@H](CO)Nc4ccc(-c5ccccc5F)cc4[C@@H]32)cc1 [BRD0539, ((3aR,4R,9bR)-8-(2-fluorophenyl)-1-tosyl-2,3,3a,4,5,9b-hexahydro-1H-pyrrolo[3,2-c]quinolin-4-yl) methanol]
human plasma stability (in words) (Plasma stability assay): stable in human plasma | reversibility of SpCas9 inhibition (in words) (SpCas9 [1]): reversible inhibition

OC[C@H]1Nc2ccc(-c3cccc(F)c3)cc2[C@H]2[C@@H]1CCN2Cc1ccncc1 [BRD7087, ((3aR,4S,9bR)-8-(3-Fluorophenyl)-1-(pyridin-4-ylmethyl)-2,3,3a,4,5,9b-hexahydro-1H-pyrrolo[3,2-c]quinolin-4-yl) methanol]
cytotoxicity (in words) [2]: non-cytotoxic | inhibition of SpCas9 in the NHEJ assay (in words) (SpCas9 [3]): dose-dependent inhibition | solubility at 24 h (physchem): 75 µM (≈ 29.2 µg/mL)
